Organism: Rattus norvegicus
Experiment: Open TG-GATES - Regimen: Single
Assay type: toxicity, organism-based, Sprague-Dawley
Parameters: regimen Single, gender Male, age 6 weeks
Settings: in vivo, po, 300 mg/kg, route gavage, dose level High; for APTT / Bas / Eos / Fbg / Hb / Ht / Lym / MCH / MCHC / MCV / Mono / Neu / PT / Plat / RBC / Ret / WBC: tissue Blood; for KIDNEY_L / KIDNEY_R / KIDNEY_TOTAL: tissue Kidney; for LIVER: tissue Liver; for A/G / ALP / ALT / AST / BUN / CRE / Ca / Cl / DBIL / GLC / IP / K / LDH / Na / PL / RALB / TBIL / TC / TG / TP / gamma-GTP: tissue Plasma

In the case of `Brc1ccccc1` [BROMOBENZENE], the TERMINAL_BW (3 h) is reported as 190.3 g, the APTT (3 h) is reported as 15.8 s and the Bas (3 h) is reported as 0%. It also gave an Eos (3 h) of 0.8%, a Fbg (3 h) of 289.8 mg/dL and a Hb (3 h) of 14.1 g/dL. It also gave a Ht (3 h) of 41.4%, a Lym (3 h) of 76.6% and an MCH (3 h) of 21.7 pg. For the same compound, the MCHC (3 h) was 33.9%, the MCV (3 h) was 64 fL and the Mono (3 h) was 3.2%. For the same compound, the Neu (3 h) was 19.2%, the PT (3 h) was 12 s and the Plat (3 h) was 115.3 x10_4/uL. The RBC (3 h) was 648.4 x10_4/ul, the Ret (3 h) was 9.4% and the WBC (3 h) was 67.3 x10_2/uL. The KIDNEY_L (3 h) was 0.8 g, the KIDNEY_R (3 h) was 0.8 g and the KIDNEY_TOTAL (3 h) was 1.7 g. For the same compound, the LIVER (3 h) was 7.6 g, the A/G (3 h) was 0.9 and the ALP (3 h) was 1696 IU/L. For the same compound, the ALT (3 h) was 48.2 IU/L, the AST (3 h) was 81.6 IU/L and the BUN (3 h) was 8 mg/dL. It also gave a CRE (3 h) of 0.1 mg/dL, a Ca (3 h) of 11 mg/dL and a Cl (3 h) of 105.2 meq/L. It also gave a DBIL (3 h) of 0.01 mg/dL, a GLC (3 h) of 191.6 mg/dL and an IP (3 h) of 10.9 mg/dL. The K (3 h) was 3.6 meq/L, the LDH (3 h) was 78.2 IU/L and the Na (3 h) was 141.6 meq/L. For the same compound, the PL (3 h) was 152.2 mg/dL, the RALB (3 h) was 2.7 g/dL and the TBIL (3 h) was 0.044 mg/dL. It also gave a TC (3 h) of 82.8 mg/dL, a TG (3 h) of 55.8 mg/dL and a TP (3 h) of 5.7 g/dL. The gamma-GTP (3 h) was 1.4 IU/L, the TERMINAL_BW (6 h) was 192 g and the APTT (6 h) was 15.8 s. It also gave a Bas (6 h) of 0%, an Eos (6 h) of 0.6% and a Fbg (6 h) of 293 mg/dL. For the same compound, the Hb (6 h) was 13.9 g/dL, the Ht (6 h) was 41.8% and the Lym (6 h) was 73%. For the same compound, the MCH (6 h) was 21 pg, the MCHC (6 h) was 33.3% and the MCV (6 h) was 63 fL. It also gave a Mono (6 h) of 2.2%, a Neu (6 h) of 23.8% and a PT (6 h) of 12.3 s. The Plat (6 h) was 107.3 x10_4/uL, the RBC (6 h) was 663.8 x10_4/ul and the Ret (6 h) was 9.1%. For the same compound, the WBC (6 h) was 56.8 x10_2/uL, the KIDNEY_L (6 h) was 0.8 g and the KIDNEY_R (6 h) was 0.8 g. For the same compound, the KIDNEY_TOTAL (6 h) was 1.6 g, the LIVER (6 h) was 7.4 g and the A/G (6 h) was 0.9. The ALP (6 h) was 1585.6 IU/L, the ALT (6 h) was 40.6 IU/L and the AST (6 h) was 72.2 IU/L. The BUN (6 h) was 9.2 mg/dL, the CRE (6 h) was 0.1 mg/dL and the Ca (6 h) was 10.9 mg/dL. For the same compound, the Cl (6 h) was 103.4 meq/L, the DBIL (6 h) was 0.008 mg/dL and the GLC (6 h) was 207.6 mg/dL. It also gave an IP (6 h) of 11.1 mg/dL, a K (6 h) of 3.8 meq/L and an LDH (6 h) of 80 IU/L. It also gave a Na (6 h) of 140.6 meq/L, a PL (6 h) of 156.8 mg/dL and an RALB (6 h) of 2.7 g/dL. For the same compound, the TBIL (6 h) was 0.04 mg/dL, the TC (6 h) was 93.2 mg/dL and the TG (6 h) was 29.4 mg/dL. The TP (6 h) was 5.7 g/dL, the gamma-GTP (6 h) was 1.4 IU/L and the TERMINAL_BW (9 h) was 190.5 g. For the same compound, the APTT (9 h) was 16.2 s, the Bas (9 h) was 0% and the Eos (9 h) was 0.6%. It also gave a Fbg (9 h) of 274.4 mg/dL, a Hb (9 h) of 14.2 g/dL and a Ht (9 h) of 41.9%. For the same compound, the Lym (9 h) was 79%, the MCH (9 h) was 21.5 pg and the MCHC (9 h) was 33.9%. The MCV (9 h) was 63.4 fL, the Mono (9 h) was 2.4% and the Neu (9 h) was 17.6%. For the same compound, the PT (9 h) was 12.2 s, the Plat (9 h) was 111.6 x10_4/uL and the RBC (9 h) was 660.8 x10_4/ul. For the same compound, the Ret (9 h) was 8.9%, the WBC (9 h) was 67.7 x10_2/uL and the KIDNEY_L (9 h) was 0.8 g. The KIDNEY_R (9 h) was 0.8 g, the KIDNEY_TOTAL (9 h) was 1.6 g and the LIVER (9 h) was 6.5 g. It also gave an A/G (9 h) of 0.9, an ALP (9 h) of 1518.8 IU/L and an ALT (9 h) of 40.8 IU/L. It also gave an AST (9 h) of 75.6 IU/L, a BUN (9 h) of 12 mg/dL and a CRE (9 h) of 0.2 mg/dL. It also gave a Ca (9 h) of 10.6 mg/dL, a Cl (9 h) of 103.6 meq/L and a DBIL (9 h) of 0.008 mg/dL. For the same compound, the GLC (9 h) was 184.8 mg/dL, the IP (9 h) was 11 mg/dL and the K (9 h) was 3.7 meq/L. It also gave an LDH (9 h) of 95.6 IU/L, a Na (9 h) of 140.6 meq/L and a PL (9 h) of 141.4 mg/dL. It also gave an RALB (9 h) of 2.6 g/dL, a TBIL (9 h) of 0.052 mg/dL and a TC (9 h) of 86.6 mg/dL. The TG (9 h) was 23.8 mg/dL, the TP (9 h) was 5.6 g/dL and the gamma-GTP (9 h) was 1.8 IU/L. The TERMINAL_BW (24 h) was 185.8 g, the APTT (24 h) was 18.7 s and the Bas (24 h) was 0%. For the same compound, the Eos (24 h) was 0.4%, the Fbg (24 h) was 204.8 mg/dL and the Hb (24 h) was 13.9 g/dL. It also gave a Ht (24 h) of 40.9%, a Lym (24 h) of 71.6% and an MCH (24 h) of 21.5 pg. It also gave an MCHC (24 h) of 34%, an MCV (24 h) of 63.2 fL and a Mono (24 h) of 1.8%. For the same compound, the Neu (24 h) was 25.8%, the PT (24 h) was 15.8 s and the Plat (24 h) was 111.5 x10_4/uL. The RBC (24 h) was 647.2 x10_4/ul, the Ret (24 h) was 7.3% and the WBC (24 h) was 73.2 x10_2/uL. For the same compound, the KIDNEY_L (24 h) was 0.8 g, the KIDNEY_R (24 h) was 0.8 g and the KIDNEY_TOTAL (24 h) was 1.7 g. For the same compound, the LIVER (24 h) was 8.6 g, the A/G (24 h) was 0.9 and the ALP (24 h) was 2477 IU/L. It also gave an ALT (24 h) of 113.6 IU/L, an AST (24 h) of 481 IU/L and a BUN (24 h) of 14.6 mg/dL. The CRE (24 h) was 0.2 mg/dL, the Ca (24 h) was 10.2 mg/dL and the Cl (24 h) was 106.8 meq/L. It also gave a DBIL (24 h) of 0.024 mg/dL, a GLC (24 h) of 166.8 mg/dL and an IP (24 h) of 8.3 mg/dL. The K (24 h) was 4.1 meq/L, the LDH (24 h) was 784.6 IU/L and the Na (24 h) was 142 meq/L. The PL (24 h) was 130.8 mg/dL, the RALB (24 h) was 2.6 g/dL and the TBIL (24 h) was 0.074 mg/dL. The TC (24 h) was 85.6 mg/dL, the TG (24 h) was 67.4 mg/dL and the TP (24 h) was 5.5 g/dL. For the same compound, the gamma-GTP (24 h) was 1.4 IU/L.

— ChEMBL document CHEMBL3885861, “Open TG-GATES”
